# Laboratory results from PubChem BioAssay (NCI).
# “And” between values parts separate entries of the source, which are not always exact repeats. Identical values can stand only once.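 Briefly, cells in 96-well plates were exposed to five compound concentrations for 48 h, and endpoints were estimated by linear interpolation. At the GI50, growth is halved. The concentration for full growth arrest is given as TGI.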 The source made the active and inactive calls. Rule as the data show it: active = GI50 below about 0.43 µM; inactive = the rest.
# Experiments:
# Test in all cases: inhibition of tumour cell growth, NCI panel, 48 h
# DLD-1 colon = test system: DLD-1 colon
# DMS 273 small cell lung = test system: DMS 273 small cell lung
# HOP-18 NSCLC = test system: HOP-18 NSCLC
# KM20L2 colon = test system: KM20L2 colon
# LXFL 529 NSCLC = test system: LXFL 529 NSCLC
# MCF7 breast = test system: MCF7 breast
# XF 498 CNS = test system: XF 498 CNS
# NCI/ADR-RES ovarian = test system: NCI/ADR-RES ovarian
SMILES,GI50 (DLD-1 colon) [µg/mL],TGI (DLD-1 colon),GI50 (DMS 273 small cell lung) [µg/mL],TGI (DMS 273 small cell lung),TGI (HOP-18 NSCLC) [µM],outcome (HOP-18 NSCLC),TGI (KM20L2 colon) [µM],outcome (KM20L2 colon),TGI (LXFL 529 NSCLC) [µM],outcome (LXFL 529 NSCLC),TGI (MCF7 breast),TGI (XF 498 CNS) [µM],outcome (XF 498 CNS),GI50 (MCF7 breast),GI50 (NCI/ADR-RES ovarian),TGI (NCI/ADR-RES ovarian) [µM]
O=C(Nc1ccc(Cl)cc1)NS(=O)(=O)c1ccc2c(c1)CCC2,19.5,> 100 µM and 41.1 µg/mL,17.6,> 100 µM and 39.6 µg/mL,> 100,inactive,> 100,inactive,> 100,inactive,81.8 µM,> 100,inactive,–,–,–
Cc1cc(O)c2c(c1)C[C@@H](O)C1=C2C(=O)c2c(O)ccc(OC3CC(O)C(OC4CC(OC5CCC(OC6CC(O)C(OC7CC(OC8CCC(O)C(C)O8)C(O)C(C)O7)C(C)O6)C(C)O5)C(O)C(C)O4)C(C)O3)c2C1=O (stereo partly drawn),–,0.0426 µM,–,0.0684 µM,0.188,–,0.191,–,0.0293,–,0.599 µM and 1.69 µM and 2.32 µM,0.0517,–,0.394 µM and 0.921 µM,3.01 µM and 1.8 µM,–
COc1c(O)c2ccccc2c2cc(O)ccc12,–,25.5 µM,–,20.5 µM,3.72,–,46.6,–,9.9,–,8.22 µM,5.13,–,–,–,29.5
COC(=O)C1=Cc2cc3c(cc2[C@H](c2ccc4c(c2)OCO4)C1C(=O)OC)OCO3 (stereo partly drawn),–,> 100 µM,–,> 100 µM,> 100,–,> 100,–,> 100,–,–,> 100,–,–,–,–
CCN(CC)CCN(C)CC(C)(C)C(=O)/C=C/c1ccccc1,–,22.2 µM,–,26.1 µM,30.6,–,23.1,–,24.7,–,–,24.8,–,–,–,–
C=C1C(=O)OC2C1C(OC(=O)/C(=C/C)COC(C)=O)CC1(CO1)C1C(OC(=O)/C(=C/C)CO)C=C(C)C21 (stereo not drawn),–,4.14 µM,–,3.68 µM,2.74,–,11.2,–,1.66,–,–,3.78,–,–,–,–
COc1ccc(CN(O)C2C(CO)OC(n3cc(I)c(=O)[nH]c3=O)C2O)cc1 (stereo not drawn),–,> 100 µM,–,> 100 µM,> 100,–,> 100,–,> 100,–,–,> 100,–,–,–,–
[N-]=[N+]=Nc1ccc(S(=O)(=O)Oc2cc(OS(=O)(=O)c3ccc(N=[N+]=[N-])cc3)cc(OS(=O)(=O)c3ccc(N=[N+]=[N-])cc3)c2)cc1,–,> 100 µM,–,> 100 µM,> 100,–,> 100,–,> 100,–,–,> 100,–,–,–,–
Cc1c(C(=O)/C=C/c2ccco2)[n+](=O)c2ccccc2n1[O-],–,> 100 µM,–,> 100 µM,> 100,–,> 100,–,> 100,–,–,> 100,–,–,–,–
COc1ccc(C(=O)O/N=C2\CCCC\C2=C/c2ccccc2)cc1,–,> 100 µM,–,> 100 µM,> 100,–,> 100,–,> 100,–,–,89.2,–,–,–,–
N#Cc1c([N+](=O)[O-])cc(C(F)(F)F)cc1[N+](=O)[O-],–,16.7 µM,–,16.8 µM,23.9,–,44.2,–,4.42,–,–,3.54,–,–,–,–
